Assay results as given in patent US20070059242A1, “METHODS TO IDENTIFY THERAPEUTIC AGENTS” (priority 2005, published 2007).

Tests used:
[1] = tested on: ICAM-1; test: Endothelial adhesion molecule expression ELISA, ICAM-1; format: cell-based, human; conditions: for integrin (ICAM-1) expression: HAAE-1, not complexed with LDL
Method: (§1) Endothelial cell surface adhesion molecule expression was measured by ELISA, using anti-human CD54 (ICAM-1), CD106 (VCAM-1) and CD62E (E-Selectin) antibodies (Leinco Technologies, Inc., St. Louis, Mo.). The ELISA method was modified from previously described procedures.
(§2) Cells were then incubated with antibodies to VCAM-1, E-selectin, or ICAM-1 diluted 1:400 in PBS containing 5% FCS at 37° C. for 30 min. Wells were washed two times with PBS, then incubated with horseradish peroxidase (HRP)-conjugated goat anti-mouse IgG (Southern Biotechnology Associates, Birmingham, Ala., USA) in PBS/5% FCS at 37° C. for 30 min. The wells were washed four times with PBS, then incubated with H2O2/3,3′,5,5′-tetramethyl-benzidine peroxidase substrate (Pierce Chemical, Rockford, Ill., USA) for 30 min in the dark. The reaction was stopped by adding 25 μl of 8 N H2SO4, and the plates read on a microplate reader, blanking on wells stained with only secondary antibody. Each assay was performed in triplicate and the data are reported as the mean±SEM as a percentage of the expression level of the vehicle. To study the effect of cholesterol ozonation product 5a concentration (5-50 μM) on E-selectin expression, the assay was performed in an identical fashion as described above, with each point being the mean±SEM of at least duplicate measurements.

[2] = tested on: VCAM-1; test: Endothelial adhesion molecule expression ELISA, VCAM-1; format: cell-based, human; conditions: for integrin (VCAM-1) expression: HAAE-1, not complexed with LDL
Method: as §1, §2

[3] = tested on: U-937 monocytes on endothelial cell monolayers; test: Monocyte-endothelial cell-cell adhesion by fluorescence spectroscopy; format: cell-based; conditions: alone or in complex with LDL
[4] = tested on: Class A scavenger receptor (SR-A); test: Scavenger receptor expression by flow cytometry, SR-A; format: cell-based, murine; conditions: for upregulation of SR-A: J774A.1, 25 μM with LDL (100 μg/ml protein), 6 h; for SR-A expression: cultured macrophages, in the absence of LDL
Method: (§3) Cell surface CD36 and SR-A were measured by flow cytometry using CD36 (BD Biosciences Pharmingen, San Diego, Calif.) and CD204 (Serotec, Oxford, UK) specific monoclonal antibodies. See Liao et al. (2000) Arterioscler. Thromb. Vasc. Biol. 20: 1968-75; Hu et al. (1996) Blood 87: 2020-28. Murine macrophage J774A.1 cells were serum-starved overnight in media with 0.5% BSA. Cells (1×10^6) treated with cholesterol ozonation products or cholesterol ozonation product complexed with LDL for specified times were then washed twice with PBS. After harvesting the cells by scraping, they were fixed with 6% paraformaldehyde for 20 min. Cells were then resuspended in PBS containing 2% heat-inactivated FCS, 0.05% NaN3 and appropriate primary antibody, antibody conjugate or isotype control (1:100 dilution) and incubated on ice for 30 min. Expression of either CD36 or SR-A was determined with CD36 (BD Biosciences Pharmingen, San Diego, Calif.) and CD204 (Serotec, Oxford, U.K.) specific monoclonal antibodies, respectively. After washing off the primary antibody, secondary antibodies were added, cells were washed again, then analyzed on a FACS calibur 2 (Becton Dickinson, Sparks, Md.) flow cytometer and analyzed by CellQuant software. Results were expressed as mean fluorescence intensity±standard error of the mean (SEM) of at least duplicate determinations. Significance was determined using a student two-tail t test, with (*) indicating p<0.05, and (**) indicating p<0.01 versus the control.

[5] = tested on: CD36; test: Scavenger receptor expression by flow cytometry, CD36; format: cell-based, murine
Method: as §3

[6] = tested on: J774A.1 macrophages; test: Uptake and localization in macrophages by fluorescence microscopy; format: cell-based, murine; conditions: 50 μM dansyl derivative, 5 min to 1 h; not complexed with LDL
Method: J774A.1 cells were plated in 8-well chambered slides (Nalge Nunc International). Cells were gently washed twice with PBS, pH 7.4 before 5 min or 1 h exposure to 50 μM dansyl derivative of cholesterol ozonation product 5d or 5e, dansyl cholesterol derivative 9c or 9d, or dansyl hydrazine diluted in media without FCS (0.05% v/v final DMSO concentration). [drawing 28] Media was removed by aspiration and cells were fixed immediately in 95% ice cold methanol for 5 min. Cells were mounted in glycerol containing Antifade reagent (Molecular Probes). Fluorescence images were documented using DeltaVision Deconvolution microscope (API, Issaquah WA) equipped with a Photometrics CH350L liquid cooled CCD camera attached to an Olympus IX—70 inverted microscope. […] All images were deconvolved using constrained iterative algorithms (10 iterations) of DeltaVision software (softWoRx, v2.5). The deconvolved images were subsequently processed using softWoRx, v2.5.
In some experiments, murine macrophage RAW 264.7 (ECACC 91062702) cells were grown in RPMI (Gibco) with 10% FCS at 37° C. with 5% CO2. For fluorescence imaging, cells were incubated on cover slips in 6-well chambered plates (Costar) for 12 h, gently washed 3 times in PBS at pH 7.4, and incubated with 50 μM dansyl derivative of cholesterol ozonation product 5d or 5e, dansyl cholesterol derivative 9c or 9d, in RPMI with 10% FCS for 5, 15, 30, and 60 min. A solution of the dansyl derivative was then added in DMSO [final DMSO, 0.05% (v/v)]. Media was removed by aspiration, and cells were washed twice with PBS, followed by fixing in paraformaldehyde (3.7% in PBS) for 10 min. Cover slips were mounted in MOWIOL 4-88 (Calbiochem). Microscopy was performed using an inverted Zeiss Axioscope 2 Plus fluorescence microscope, and images were obtained with a Zeiss Axiocam digital camera using Axiovision software (version 3.1). The data were collected using a 63× oil immersion lens and DAPI filter (excitation 360/emission 460), and images were processed with Axiovision software and Adobe software (Photoshop 6.0).

[7] = J774A.1, 25 μM complexed with LDL (100 μg/ml protein), 6 h
[8] = cultured macrophages, in the absence of LDL
[9] = HAAE-1, 25 μM in the presence of LDL, or lipoprotein alone

Row | SMILES | integrin (ICAM-1) expression [1] | integrin (VCAM-1) expression [2] | adhesion of U-937 monocytes to endothelial cell monolayers, above that of LDL alone [3] | upregulation of SR-A [4] | SR-A expression [4] | CD36 expression [5, 7] | CD36 expression [5, 8] | uptake and localization in macrophages [6] | ICAM-1 levels [1, 9] | VCAM-1 levels [2, 9]
1 | CC(C)CCC[C@@H](C)[C@H]1CCC2C3C(CC[C@@]21C)[C@@]1(C)CC[C@H](O)C[C@@]1(O)[C@@H]3C=O (stereo partly drawn) [5a, 3β-Hydroxy-5β-hydroxy-B-norcholestane-6β-carboxaldehyde] | no effects | no effects | no significant increase in equilibrium binding of monocytes to endothelial cells | approximately 3 fold | did not increase expression | little or no effect | did not increase expression | efficiently taken up by macrophages |  | 
2 | CC(C)CCC[C@@H](C)[C@H]1CCC2C(CC=O)C([C@@]3(C)CC[C@H](O)CC3=O)CC[C@@]21C (stereo partly drawn) [4a, 3β-Hydroxy-5-oxo-5,6-secocholestan-6-al] | no effects | no effects | no significant increase in equilibrium binding of monocytes to endothelial cells | approximately 3 fold | did not increase expression | little or no effect | did not increase expression | efficiently taken up by macrophages | remain unchanged | remain unchanged
